The values below come from patent publication US12415816B2, “Benzothiazole derivatives and 7-aza-benzothiazole derivatives as janus kinase 2 inhibitors and uses thereof” (Dana-Farber Cancer Institute, Inc., priority 2018, dated 2025).

For orientation: IC50 means the midpoint of a concentration-inhibition curve.

One test deals with JAK2 (Homo sapiens (Human), UniProt O60674). The test is described as follows: JAK2 Z-Lyte biochemical assay. The note with it: commercial JAK2 Z-Lyte assay from Invitrogen. How it is done: The JAK2 Z-Lyte biochemical assay was performed according to manufacturer's instructions (Life Technologies).
Sequence of JAK2 (O60674 whole entry): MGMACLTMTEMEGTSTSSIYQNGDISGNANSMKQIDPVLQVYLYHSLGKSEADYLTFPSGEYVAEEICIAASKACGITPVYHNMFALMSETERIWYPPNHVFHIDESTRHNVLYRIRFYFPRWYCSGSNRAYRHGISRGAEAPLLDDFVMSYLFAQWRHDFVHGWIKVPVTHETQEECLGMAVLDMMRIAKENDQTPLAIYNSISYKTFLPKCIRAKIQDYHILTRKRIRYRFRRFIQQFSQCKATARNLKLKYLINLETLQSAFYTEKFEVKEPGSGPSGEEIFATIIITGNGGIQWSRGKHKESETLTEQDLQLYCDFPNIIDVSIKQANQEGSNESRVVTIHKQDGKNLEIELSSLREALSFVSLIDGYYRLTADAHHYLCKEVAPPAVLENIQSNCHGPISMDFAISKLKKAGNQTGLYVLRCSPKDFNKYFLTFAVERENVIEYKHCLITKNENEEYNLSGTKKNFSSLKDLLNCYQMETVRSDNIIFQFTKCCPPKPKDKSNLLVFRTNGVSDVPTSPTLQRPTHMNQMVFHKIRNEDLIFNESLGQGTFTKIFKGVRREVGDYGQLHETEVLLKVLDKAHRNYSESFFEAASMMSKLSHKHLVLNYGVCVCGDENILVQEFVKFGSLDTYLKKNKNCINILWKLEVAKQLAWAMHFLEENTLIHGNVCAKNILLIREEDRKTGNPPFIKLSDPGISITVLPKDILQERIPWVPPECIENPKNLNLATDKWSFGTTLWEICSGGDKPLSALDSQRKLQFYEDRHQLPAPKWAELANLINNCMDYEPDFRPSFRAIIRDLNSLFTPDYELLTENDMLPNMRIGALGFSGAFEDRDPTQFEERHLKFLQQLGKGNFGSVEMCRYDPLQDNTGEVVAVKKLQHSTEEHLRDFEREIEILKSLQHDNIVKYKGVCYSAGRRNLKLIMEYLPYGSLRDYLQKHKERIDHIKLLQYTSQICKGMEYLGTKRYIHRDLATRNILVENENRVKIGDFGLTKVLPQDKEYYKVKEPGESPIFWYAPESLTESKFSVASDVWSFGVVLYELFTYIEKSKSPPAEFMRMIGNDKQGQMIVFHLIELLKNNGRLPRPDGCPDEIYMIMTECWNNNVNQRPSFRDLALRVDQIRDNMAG
For the next test, the system named is JAK2/STAT5. As to the kind of experiment: Western blots of JAK2/STAT5 inhibition in cells. Conditions: cells treated with indicated concentrations for 4 hours; immunoblotting pJAK2, pSTAT5, c-Myc. In kind it is cell-based. How it is done: FIG. 1. […] Cells were treated with the indicated concentrations of JAK2 inhibitor for 4 hours. Cell pellets were lysed with Cell Lysis Buffer (Cell Signaling Technology) and then immunoblotting was performed with pJAK2 (#3771), pSTAT5 (#4322), c-Myc (#9402), JAK2 (#3230), STAT5 (#9363 or 94205), and β-actin (#4967 or 12620) antibodies from Cell Signaling Technology.
FIG. 2. […] Cells were treated with the indicated concentrations of JAK2 inhibitor for 4 hours. Cell pellets were lysed with Cell Lysis Buffer (Cell Signaling Technology) and then immunoblotting was performed with pJAK2 (#3771), pSTAT5 (#4322), c-Myc (#9402), JAK2 (#3230), STAT5 (#9363 or 94205), and β-actin (#4967 or 12620) antibodies from Cell Signaling Technology.
On the technique in general: Immunoblotting shows a protein as a band on a membrane.

For test [1], the system named is cell lines or patient-derived xenografts from patients with CRLF2-rearranged B-ALL. Conditions: cited from earlier work.

Some results are limits rather than exact numbers.

On to `O=C(Nc1nc2ccc(-c3ccc4c(c3)N(C(=O)Nc3ccc(F)cc3F)CC4)nc2s1)C1CC1` [Compound I-10, 6-(2-(cyclopropanecarboxamido)thiazolo[5,4-b]pyridin-5-yl)-N-(2,4-difluorophenyl)indoline-1-carboxamide], for which the half-maximal inhibitory concentration (IC50) on JAK2 is > 10 µM. As for `O=C(Nc1nc2ccc(Oc3ccc4c(c3)CN(C(=O)Nc3ccc(F)cc3F)C4)nc2s1)C1CC1` [Compound I-23, 5-((2-(cyclopropanecarboxamido)thiazolo[5,4-b]pyridin-5-yl)oxy)-N-(2,4-difluorophenyl)isoindoline-2-carboxamide], the IC50 at JAK2 was > 10 µM.

`CCN1CCN(Cc2cc(C(=O)Nc3ccc(C)c(Oc4ccc5nc(NC(=O)C6CC6)sc5n4)c3)cc(C(F)(F)F)c2)CC1` [Compound I-19, N-(3-((2-(cyclopropanecarboxamido)thiazolo[5,4-b]pyridin-5-yl)oxy)-4-methylphenyl)-3-((4-ethylpiperazin-1-yl)methyl)-5-(trifluoromethyl)benzamide] returned an IC50 against JAK2 of 0.824 µM. Consider `Cc1ccc(NC(=O)Nc2ccc(F)cc2F)cc1Oc1ccc2nc(NC(=O)C3CC3)sc2n1` [Compound I-16, N-(5-(5-(3-(2,4-difluorophenyl)ureido)-2-methylphenoxy)thiazolo[5,4-b]pyridin-2-yl)cyclopropanecarboxamide], for which the IC50 at JAK2 is > 10 µM. For `O=C(Nc1nc2ccc(-c3ccc4c(c3)CN(C(=O)Nc3ccc(F)cc3F)C4)nc2s1)C1CC1` [Compound I-15, 5-(2-(cyclopropanecarboxamido)thiazolo[5,4-b]pyridin-5-yl)-N-(2,4-difluorophenyl)isoindoline-2-carboxamide], the IC50 on JAK2 was > 10 µM. Still for that read-out and setting: the figure for `Cc1ccc(C(=O)Nc2ccc(F)cc2F)cc1-c1ccc2nc(NC(=O)C3CC3)sc2n1` [Compound I-1, 3-(2-(cyclopropanecarboxamido)thiazolo[5,4-b]pyridin-5-yl)-N-(2,4-difluorophenyl)-4-methylbenzamide] is > 10 µM; for `CCN1CCN(Cc2cc(NC(=O)N3Cc4ccc(-c5ccc6nc(NC(=O)C7CC7)sc6n5)cc4C3)cc(C(F)(F)F)c2)CC1` [Compound I-14, 5-(2-(cyclopropanecarboxamido)thiazolo[5,4-b]pyridin-5-yl)-N-(3-((4-ethylpiperazin-1-yl)methyl)-5-(trifluoromethyl)phenyl)isoindoline-2-carboxamide] it is > 10 µM.

For the compound `CCN1CCN(Cc2ccc(Nc3nc4ccc(Oc5ccc6nc(NC(=O)C7CC7)sc6n5)cc4[nH]3)cc2C(F)(F)F)CC1` [Compound I-25, N-(5-((2-((4-((4-ethylpiperazin-1-yl)methyl)-3-(trifluoromethyl)phenyl)amino)-1H-benzo[d]imidazol-6-yl)oxy)thiazolo[5,4-b]pyridin-2-yl)cyclopropanecarboxamide], the IC50 on JAK2 worked out at 0.63 µM. The same measure, in the same setting: the figure for `CCN1CCN(Cc2cc(NC(=O)N3Cc4ccc(Oc5ccc6nc(NC(=O)C7CC7)sc6n5)cc4C3)cc(C(F)(F)F)c2)CC1` [Compound I-22, 5-((2-(cyclopropanecarboxamido)thiazolo[5,4-b]pyridin-5-yl)oxy)-N-(3-((4-ethylpiperazin-1-yl)methyl)-5-(trifluoromethyl)phenyl)isoindoline-2-carboxamide] is > 10 µM; for `CCN1CCN(Cc2cc(C(=O)N3CCc4ccc(-c5ccc6nc(NC(=O)C7CC7)sc6n5)cc43)cc(C(F)(F)F)c2)CC1` [Compound I-11, N-(5-(1-(3-((4-ethylpiperazin-1-yl)methyl)-5-(trifluoromethyl)benzoyl)indolin-6-yl)thiazolo[5,4-b]pyridin-2-yl)cyclopropanecarboxamide] it is > 10 µM. `CCN1CCN(C(=O)c2cc(NC(=O)c3ccc(C)c(-c4ccc5nc(NC(=O)C6CC6)sc5n4)c3)cc(C(F)(F)F)c2)CC1` [Compound I-6, 3-(2-(cyclopropanecarboxamido)thiazolo[5,4-b]pyridin-5-yl)-N-(3-(4-ethylpiperazine-1-carbonyl)-5-(trifluoromethyl)phenyl)-4-methylbenzamide]: 1.45 µM corresponded to half-maximal inhibition on JAK2 (IC50). In addition, the “JAK2/STAT5 inhibition (Western blots)” value in the test with JAK2/STAT5 is recorded as “JAK2/STAT5 inhibition”.

As for `CCN1CCN(Cc2cc(NC(=O)Nc3ccc(C)c(-c4ccc5nc(NC(=O)C6CC6)sc5n4)c3)cc(C(F)(F)F)c2)CC1` [Compound I-9, N-(5-(5-(3-(3-((4-ethylpiperazin-1-yl)methyl)-5-(trifluoromethyl)phenyl)ureido)-2-methylphenyl)thiazolo[5,4-b]pyridin-2-yl)cyclopropanecarboxamide], the IC50 against JAK2 was > 10 µM. For the compound `N#CC[C@H](C1CCCC1)n1cc(-c2ncnc3[nH]ccc23)cn1` [Ruxolitinib], the IC50 in test [1] is > 20 µM.

For `CC(=O)Nc1nc2ccc(-c3cc(C(=O)Nc4ccc(F)cc4F)ccc3C)nc2s1` [Compound I-2, 3-(2-acetamidothiazolo[5,4-b]pyridin-5-yl)-N-(2,4-difluorophenyl)-4-methylbenzamide], the IC50 on JAK2 was > 10 µM. In the case of `CCN1CCN(Cc2cc(C(=O)Nc3cccc(-c4ccc5nc(NC(=O)C6CC6)sc5n4)c3)cc(C(F)(F)F)c2)CC1` [Compound I-7, N-(3-(2-(cyclopropanecarboxamido)thiazolo[5,4-b]pyridin-5-yl)phenyl)-3-((4-ethylpiperazin-1-yl)methyl)-5-(trifluoromethyl)benzamide], half-maximal inhibition on JAK2 (IC50) was put at 0.55 µM. Take `CCN1CCN(Cc2ccc(NC(=O)N3Cc4ccc(Oc5ccc6nc(NC(=O)C7CC7)sc6n5)cc4C3)cc2C(F)(F)F)CC1` [Compound I-21, 5-((2-(cyclopropanecarboxamido)thiazolo[5,4-b]pyridin-5-yl)oxy)-N-(4-((4-ethylpiperazin-1-yl)methyl)-3-(trifluoromethyl)phenyl)isoindoline-2-carboxamide]: at JAK2, the IC50 is > 10 µM. Still for that read-out and setting: the figure for `CCN1CCN(Cc2ccc(NC(=O)Nc3ccc(C)c(Oc4ccc5nc(NC(=O)C6CC6)sc5n4)c3)cc2C(F)(F)F)CC1` [Compound I-17, N-(5-(5-(3-(4-((4-ethylpiperazin-1-yl)methyl)-3-(trifluoromethyl)phenyl)ureido)-2-methylphenoxy)thiazolo[5,4-b]pyridin-2-yl)cyclopropanecarboxamide] is > 10 µM; for `CCN1CCN(Cc2cc(NC(=O)N3CCc4ccc(-c5ccc6nc(NC(=O)C7CC7)sc6n5)cc43)cc(C(F)(F)F)c2)CC1` [Compound I-12, 6-(2-(cyclopropanecarboxamido)thiazolo[5,4-b]pyridin-5-yl)-N-(3-((4-ethylpiperazin-1-yl)methyl)-5-(trifluoromethyl)phenyl)indoline-1-carboxamide] it is > 10 µM; for `Cc1ccc(NC(=O)Nc2ccc(F)cc2F)cc1-c1ccc2nc(NC(=O)C3CC3)sc2n1` [Compound I-3, N-(5-(5-(3-(2,4-difluorophenyl)ureido)-2-methylphenyl)thiazolo[5,4-b]pyridin-2-yl)cyclopropanecarboxamide] it is > 10 µM. The same measure, in the same setting: the figure for `O=C(Nc1nc2ccc(Oc3ccc4nc(Nc5ccc(F)cc5F)[nH]c4c3)nc2s1)C1CC1` [Compound I-24, N-(5-((2-((2,4-difluorophenyl)amino)-1H-benzo[d]imidazol-6-yl)oxy)thiazolo[5,4-b]pyridin-2-yl)cyclopropanecarboxamide] is > 10 µM. Same read-out and setting: the figure for `CCN1CCN(Cc2cc(C(=O)Nc3ccc(C)c(-c4ccc5nc(NC(=O)C6CC6)sc5c4)c3)cc(C(F)(F)F)c2)CC1` [Compound I-4] is 0.881 µM. Turning to `CCN1CCN(Cc2cc(C(=O)N3Cc4ccc(-c5ccc6nc(NC(=O)C7CC7)sc6n5)cc4C3)cc(C(F)(F)F)c2)CC1` [Compound I-13, N-(5-(2-(3-((4-ethylpiperazin-1-yl)methyl)-5-(trifluoromethyl)benzoyl)isoindolin-5-yl)thiazolo[5,4-b]pyridin-2-yl)cyclopropanecarboxamide], on JAK2, the IC50 was > 10 µM. On the same count and under the same terms, the figure for `CCN1CCN(Cc2cc(NC(=O)c3ccc(C)c(Oc4ccc5nc(NC(=O)C6CC6)sc5n4)c3)cc(C(F)(F)F)c2)CC1` [Compound I-20, 3-((2-(cyclopropanecarboxamido)thiazolo[5,4-b]pyridin-5-yl)oxy)-N-(3-((4-ethylpiperazin-1-yl)methyl)-5-(trifluoromethyl)phenyl)-4-methylbenzamide] is 2.83 µM. As to `CCN1CCN(Cc2cc(C(=O)Nc3ccc(C)c(-c4ccc5nc(NC(=O)C6CC6)sc5n4)c3)cc(C(F)(F)F)c2)CC1` [Compound I-8, N-(3-(2-(cyclopropanecarboxamido)thiazolo[5,4-b]pyridin-5-yl)-4-methylphenyl)-3-((4-ethylpiperazin-1-yl)methyl)-5-(trifluoromethyl)benzamide], it took 0.639 µM to reach half-maximal inhibition at JAK2 (IC50). The “JAK2/STAT5 inhibition (Western blots)” value with JAK2/STAT5 was “JAK2/STAT5 inhibition”.
